Results published in article PMC11310079, “Commensal production of a broad-spectrum and short-lived antimicrobial peptide polyene eliminates nasal Staphylococcus aureus” (Nature Microbiology, 2023).

Columns and labels:
[1] = cited from earlier work
Excerpt: To our knowledge, the combination of peptide–polyene–tetramic acid moieties is unique to epifadin. […] In contrast to the ionophore act ...

[2] = system: S. aureus USA300 JE2; assay: Determination of the IC (miniaturized agar diffusion assay); type: cell-based, Staphylococcus aureus; settings: agar diffusion on inoculated TSA, 24 h 37 °C dark; IC from inhibited agar volume
Procedure: (§1) Instead, a miniaturized assay was developed. Molten TSA, kept below 42 °C, was inoculated with different test strains at an OD600 of 0.00125. Then, 17.5 ml was poured into Petri dishes, resulting in agar layers of ~3.16 mm thickness. After solidification, a cork borer was used to punch wells of 4-mm diameter into the agar. Thirty-five microlitres of purified epifadin in DMSO–PA (2.4 µg, 1.2 µg, 0.6 µg, 0.3 µg, 0.15 µg and 0.075 µg) was pipetted into the wells, and agar plates were incubated for 24 h at 37 °C in the dark. Diameters of the zones of inhibition were measured and the volume containing the inhibitory epifadin concentration was calculated, using the following formula for cylinder volume: Vc=πxr^2xhVc=cylindervolumeVi=πrz2xha−(πrw2xha)Vi=inhibitedvolumerz2=radius(diameter/2)zoneofinhibitionrw2=radius(diameter/2)ofwellha=heightofagar
(§2) The volume of agar showing inhibition of the test strain was then correlated with the included amount of epifadin, and the epifadin concentration necessary to inhibit test strain growth in a 1 ml volume was calculated to yield IC values. If, for example, 2.4 µg of epifadin lead to an inhibited volume of 480 µl, to inhibit a volume of 1 ml, 5 µg epifadin is needed, which corresponds to an IC of 5 μg ml^−1. These calculations were conducted for the lowest amount of epifadin that led to a zone of inhibition to minimize the necessary epifadin amounts and the calculation error due to the gradient within the inhibition zone. As a control, the same assay was used to determine the IC for vancomycin, daptomycin and lugdunin under these conditions.

[3] = system: S. aureus USA300LAC; assay: as above; type: cell-based, Staphylococcus aureus; settings: agar diffusion on inoculated TSA, 35 µl in 4-mm wells, 24 h 37 °C dark; IC from inhibited agar volume at lowest active amount
Procedure: as §1, §2

[4] = system: S. aureus USA300 LAC; assay: Stability analysis of epifadin (bioactivity by agar diffusion after incubation); type: physicochemical, Staphylococcus aureus; settings: lugdunin 70 µg/ml in TSB, 37 °C, pH 7, light, r4-r10 = 0-6 h
Procedure: Fig. 2 High instability of epifadin under in vivo-like conditions. S. epidermidis IVK83 culture supernatants containing epifadin were precipitated with HCl, freeze-dried and extracted with DMSO. This extract was diluted in TSB, incubated for the indicated time periods with constant shaking under the respective conditions and subsequently tested for activity towards S. aureus USA300 LAC. a, Stability of epifadin compared with other antibacterial agents under standard laboratory conditions (37 °C, pH 7, laboratory light exposure). b, In vivo-like conditions with laboratory light exposure at pH 7 (nasal condition) or pH 5.5 (skin condition) and reduced temperatures; incubation of epifadin under exclusion from light enabled further purification and activity determination. Conditions at pH 7, 37 °C and 0 h were used as reference for 100% stability. Data shown represent the mean ± s.d. of three independent experiments. Source data
The effect of different incubation conditions on the bioactivity of epifadin was analysed by agar diffusion assays on lawns of the sensitive indicator strain S. aureus USA300 LAC. To this end, liquid TSA was inoculated with an overnight culture of USA300 at an OD600 of 0.00125. After solidification of the agar, a cork borer was used to punch wells into the agar with 5 mm diameter. TSB media with 50 mM sodium citrate (pH 5 and 6) or 50 mM tris(hydroxymethyl)aminomethane (pH 8 and 9) were prepared. Epifadin-containing precipitate was dissolved in DMSO (12 mg ml^−1), and insoluble particles were removed by centrifugation. The supernatant was added to the prepared TSB media at a final concentration of 750 µg precipitate per millilitre (37.5 µg in 50 µl). Media were incubated for 6 h at 21 °C, 30 °C or 37 °C with or without laboratory light exposure and constant shaking at 500 rpm in a thermomixer (Eppendorf). As controls, 70 µg ml^−1 (3.5 µg in 50 µl) lugdunin, 24 µg ml^−1 (1.2 µg in 50 µl) gallidermin and 100 µg ml^−1 (5 µg in 50 µl) nisin were used. At different timepoints, 50 µl of each sample was pipetted into the wells of the agar plates. After incubation at 37 °C overnight, zones of inhibition were analysed with ImageJ software (version 1.8.0_112).

## CC(=O)C1=C(O)[C@@H](CC(C)C)NC1=O [mutanocyclin]
[1]
  antimicrobial activity: not antimicrobial

## CCCCCCC/C=C/C(=O)N1C(O)=C(C(C)=O)C(=O)[C@H]1CC(C)C [reutericyclin A]
[1]
  antimicrobial activity: antimicrobial

## Lugdunin
[2]
  IC*: 8.5 µg/mL
[3]
  IC*: 7.3 µg/mL
[4]; experiment 1 of 3, after 1 h incubation
  stability (remaining antimicrobial activity, 0 h = 100%): 83.34%
[4]; experiment 1 of 3, after 2 h incubation
  stability (remaining antimicrobial activity, 0 h = 100%): 75.95%
[4]; experiment 1 of 3, after 3 h incubation
  stability (remaining antimicrobial activity, 0 h = 100%): 68.18%
[4]; experiment 1 of 3, after 4 h incubation
  stability (remaining antimicrobial activity, 0 h = 100%): 72.38%
[4]; experiment 1 of 3, after 5 h incubation
  stability (remaining antimicrobial activity, 0 h = 100%): 65.52%
[4]; experiment 1 of 3, after 6 h incubation
  stability (remaining antimicrobial activity, 0 h = 100%): 61.66%
[4]; experiment 2 of 3, after 1 h incubation
  stability (remaining antimicrobial activity, 0 h = 100%): 81.19%
[4]; experiment 2 of 3, after 2 h incubation
  stability (remaining antimicrobial activity, 0 h = 100%): 74.91%
[4]; experiment 2 of 3, after 3 h incubation
  stability (remaining antimicrobial activity, 0 h = 100%): 69.51%
[4]; experiment 2 of 3, after 4 h incubation
  stability (remaining antimicrobial activity, 0 h = 100%): 68.58%
[4]; experiment 2 of 3, after 5 h incubation
  stability (remaining antimicrobial activity, 0 h = 100%): 65.27%
[4]; experiment 2 of 3, after 6 h incubation
  stability (remaining antimicrobial activity, 0 h = 100%): 69.75%
[4]; experiment 3 of 3, after 1 h incubation
  stability (remaining antimicrobial activity, 0 h = 100%): 81.54%
[4]; experiment 3 of 3, after 2 h incubation
  stability (remaining antimicrobial activity, 0 h = 100%): 76.22%
[4]; experiment 3 of 3, after 3 h incubation
  stability (remaining antimicrobial activity, 0 h = 100%): 72.30%
[4]; experiment 3 of 3, after 4 h incubation
  stability (remaining antimicrobial activity, 0 h = 100%): 70.84%
[4]; experiment 3 of 3, after 5 h incubation
  stability (remaining antimicrobial activity, 0 h = 100%): 67.83%
[4]; experiment 3 of 3, after 6 h incubation
  stability (remaining antimicrobial activity, 0 h = 100%): 62.11%
